According to US4997926A, “Deaminase-stable anti-retroviral 2-halo-2',3'-dideoxy” (Scripps Clinic and Research Foundation, priority 1987, dated 1991):

How the values were obtained:
[1] = acid conditions; cited from earlier work
[2] = system: deoxycytidine kinase and adenosine kinase deficient CEM T cells (clone AraC-8DM10-5); type: in vitro ADME, human; settings: 3 uM, 4 hours
Description: ^1 Human CEM T cells, or variants deficient in either deoxycytidine
kinase, or deoxycytidine kinase plus adenosine kinase, were incubated at
density of 5 × 10^7 cells/ml in medium containing 3 uM [8^3
H2-chloro-2',3dideoxyadenosine. After 4 hours, the nucleotides in the
methanolsoluble extracts were determined after separation by HPLC, as
described in the Materials and Methods.
The human T lymphoblastoid cell line, CCRF-CEM, and mutants deficient in either deoxycytidine kinase (clone AraC-8D), or deoxycytidine kinase plus adenosine kinase (clone AraC-8DM10-5) were obtained and propagated as described previously [Foley et al., (1965) Cancer, 18:552-529 and Hershfield et al., (1982) J. Biol. Chem., 257:6380-6386]. For metabolic studies, the cells were cultured in RPMI 1640 medium supplemented with 2 mM L-glutamine and 10 percent fetal bovine serum at a density of 2×10^7 cells/ml in the presence of radiolabelled dideoxynucleosides, as indicated earlier. Some cultures were pre-incubatedfor 30 minutes either with 5 uM 2'-deoxycoformycin or 50 uM coformycin. After 4 hours of incubation the cells were harvested by centrifugation.
The cell pellets were washed with Hank's balanced salt solution at 4 degrees C., and extracted with 1 ml 60 percent methanol/water at -20 degrees C. for 10 minutes. Initial studies included 2',3'-dideoxyadenosine5'-triphosphate as an internal recovery marker. The nucleotides were fractionated by high performance liquid chromatography on an Whatman Partisil-10 SAX column, applying a gradient of zero to 100 percent buffer B in buffer A. Buffer A was 7 mM potassium phosphate pH 3.4. Buffer B was 0.5 M potassium phosphate, pH 3.4, one M KCl. The flow rate was 1.5 ml/minute, 1 minute fractions were collected. Buffer A was used alone for the first ten fractions after which elution with Buffer B began and was continued through fraction thirty, after which the eluting buffer was completely Buffer B. The nucleoside was eluted by about fraction six. The monophosphate eluted between about fractions fifteen and eighteen, the diphosphate between about fractions twenty-seven and thirty-two, and the triphosphate eluted between about fractions fifty-one and about sixty-five.

| SMILES | rate of acid hydrolysis relative to adenosine [1] | Nucleotide Formed, Diphosphate [2] [pmols/10^8 cells/4 hrs] | Nucleotide Formed, Monophosphate [2] [pmols/10^8 cells/4 hrs] | Nucleotide Formed, Triphosphate [2] [pmols/10^8 cells/4 hrs] |
| --- | --- | --- | --- | --- |
| Nc1ncnc2c1ncn2[C@H]1CC[C@@H](CO)O1 [2',3'-dideoxyadenosine, reference compound] | about 40,000 times faster |  |  |  |
| Nc1nc(Cl)nc2c1ncn2[C@H]1CC[C@@H](CO)O1 [2-chloro-2',3'-dideoxyadenosine] |  | 0.7 | 0.9 | 2.5 |
